According to the CheMixHub viscosity set:

Assay: xn = mol fraction of the nth substance listed
Settings: 101 kPa

CC(O)CN(C)C (stereo not given) + O
viscosity [mPa·s]
Settings | 293.15 K | 303.15 K | 308.15 K | 313.15 K | 318.15 K | 323.15 K
x1 = 0.05 | – | 2.279 | 1.935 | 1.656 | 1.441 | 1.264
x1 = 0.0997 | – | 4.278 | 3.466 | 2.852 | 2.393 | 2.027
x1 = 0.1 | 7.22 | 4.74 | – | – | – | 2.15
x1 = 0.1507 | – | 5.905 | 4.691 | 3.78 | 3.11 | 2.592
x1 = 0.2001 | 9.89 | 6.37 | – | 4.08 | – | 2.82
x1 = 0.2021 | – | 6.775 | 5.334 | 4.263 | 3.485 | 2.881
x1 = 0.2501 | – | – | 5.478 | 4.372 | 3.562 | 2.935
x1 = 0.3003 | 9.87 | 6.34 | – | 4.01 | – | 2.8
x1 = 0.3013 | – | 6.703 | 5.288 | 4.227 | 3.449 | 2.847
x1 = 0.3507 | – | 6.218 | 4.934 | – | 3.249 | 2.692
x1 = 0.3998 | 8.61 | 5.52 | – | 3.49 | – | 2.47
x1 = 0.4013 | – | 5.613 | 4.485 | 3.628 | 2.989 | –
x1 = 0.4578 | – | 4.875 | 3.936 | 3.213 | 2.674 | –
x1 = 0.4999 | 6.61 | 4.37 | – | 2.8 | – | 2.01
x1 = 0.5049 | – | 4.294 | 3.499 | 2.882 | 2.426 | –
x1 = 0.6 | 4.76 | 3.18 | – | 2.17 | – | 1.62
x1 = 0.6009 | – | 3.285 | 2.747 | 2.294 | 1.955 | –
x1 = 0.7002 | 3.38 | 2.31 | – | 1.69 | – | 1.32
x1 = 0.7054 | – | 2.482 | 2.111 | 1.807 | 1.57 | –
x1 = 0.7955 | – | 1.957 | 1.697 | 1.479 | 1.305 | –
x1 = 0.8 | 2.47 | 1.83 | – | 1.4 | – | 1.11
x1 = 0.8905 | – | 1.561 | 1.375 | 1.218 | 1.092 | –
x1 = 0.9001 | 1.94 | 1.5 | – | 1.17 | – | 0.95
x1 = 0.9564 | – | 1.347 | 1.201 | 1.077 | 0.973 | –
